# Experimental data: patent US6586425B2, “Cytoskeletal active agents for glaucoma therapy” (Wisconsin Alumni Research Foundation, priority 1996, dated 2003)
# Like-named read-outs stand apart in the source and are kept apart here.
# How the values were obtained:
# living monkey eye = conditions: in vivo
# living monkey eyes [1] = assay: Aqueous humor protein concentration (Lowry method); type: in vivo, cynomolgus monkeys (Macaca fascicularis); conditions: 4 μg LAT-B topical, insignificant
# Source text: Approximately 5.5 hr after LAT-A and vehicle (25% DMSO) administration, or approximately 6.5 hr after LAT-B and vehicle (25% DMSO) administration, when AHF measurements had been completed, a sample of AH was obtained under a Zeiss surgical microscope, using a 30-gauge needle connected via polyethylene tubing to a tuberculin syringe. The needle was threaded through the corneal stroma for 6 mm, then directed into the AC so that the wound was self-sealing. AH entered the tubing by very gentle suction with the tuberculin syringe; only occasionally was brief mild pressure on the cornea with a needle holder required to promote the initial flow of AH into the tubing via the very thin needle. Approximately 60-80 μl of AH was removed, leaving a shallow but not completely flattened AC. In separate protocols with different monkeys, AH was similarly obtained 2 hr after 42 μg LAT-A or 1 hr after 4 μg LAT-B to one eye and vehicle to the opposite eye. The AH samples were stored at −20° C. for up to 24 hr. The protein concentration in each sample was assayed by the Lowry method, as known in the art (See e.g., Lowry et al., J. Biol. Chem., 193:265-275[1951]; and Peterson et al., Anal. Biochem., 100:201-220[1979]), in duplicate, and the result averaged. Duplicate sets of protein standards containing 0, 1, 3, 5, 10, 20, 40, or 60 μg bovine serum albumin (BSA) were assayed by the same method and results averaged and graphed to give a linear equation that was used to estimate the protein content in the AH samples. The optical density of each sample was measured at 660 nm using a Spectronic 20 Spectrophotometer (Bausch and Lomb).
# living monkey eyes [2] = assay: Slit lamp biomicroscopy (ocular tolerability); type: in vivo, cynomolgus monkeys (Macaca fascicularis)
# Experimental: e) Ocular Tolerability/Toxicity: Ocular exams, including slit lamp biomicroscopy (Zeiss or Haag-Streit), gonioscopy, and binocular indirect ophthalmoscopy (American Optical or Keeler), were performed by a trained ophthalmologist, using when necessary contact lenses specially fabricated for the small monkey eye (Kaufman and Wallow, Exp. Eye Res., 40:883-885[1985]). In addition, specular microscopy was used to evaluate drug effects on the corneal endothelium.
# The AC of both eyes of was cannulated with a branched needle as above, after which baseline facility measurements were taken for 35-45 min. With reservoirs closed, 2×5 μl drops of 200 μM (˜0.8 μg) or 4×5 μl drops of 500 μM (˜4.0 μg) LAT-B were given to one eye of the prone monkey, allowing 60-90 sec between drops. […] Vehicle (10 or 25% DMSO respectively) was given simultaneously to the opposite eye in a similar manner. The doses were chosen to give […] and 1 μM LAT-B concentrations respectively in the 100 μl monkey AC (See e.g., Erickson-Lamy et al., Arch. Opthalmol., 102:1815-1820[1984]), assuming 1% penetration and no initial drug loss from the AC (Asseff et al., Amer. J. Ophthalmol., 75:212-215[1973]; Harris, in Leopold (ed.), Symposium on Ocular Therapy, C. V. Mosby, St. Louis, Mo., [1968], pp. 96-105; Janes and Stiles, Arch. Ophthahnol., 62:69-74[1959]). The perfusion system remained closed for 2 hr, after which facility measurements were taken for 90 min. Biomicroscopy was performed by an ophthalmologist before and 3, 7 and 14 days after drug administration.
# For slit lamp biomicroscopy, a trained ophthalmologist examined all eyes by slit lamp, for integrity of the corneal epithelium and endothelium, presence of flare or cells in the anterior chamber and clarity of the lens. All animals were free of ocular abnormalities when studied.
# corneal endothelium = conditions: 42 μg LAT-A topical, n=4
# living monkey eyes [3] = assay: Slit lamp biomicroscopy (ocular tolerability); type: in vivo, cynomolgus monkeys (Macaca fascicularis); conditions: one to 5 hr after topical drug
# living monkey eyes [4] = assay: Aqueous humor flow and corneal endothelial transfer coefficient ka by fluorophotometry; conditions: for AHF Rx, LAT-B/Vehicle / AHF Rx/BL, LAT-B eye / AHF Rx/BL, LAT-B/Vehicle / ka Rx, LAT-B eye / ka Rx, LAT-B/Vehicle / ka Rx/BL, LAT-B eye / ka Rx/BL, LAT-B/Vehicle: 4.0 μg LAT-B topical
smiles,measurement,setting,value
C/C1=C/C(=O)O[C@@H]2C[C@@H](CC[C@H](C)/C=C\CC1)O[C@@](O)([C@@H]1CSC(=O)N1)C2 [LAT-B],"BL2/BL1, LAT-B eye",living monkey eye,0.90 ± 0.05
same,"BL2/BL1, LAT-B/Veh",living monkey eye,0.96 ± 0.06
same,"Baseline facility BL2, LAT-B eye",living monkey eye,0.33 ± 0.03 μl min^−1 mmHg^−1
same,"Baseline facility BL2, LAT-B/Veh",living monkey eye,1.01 ± 0.08
same,baseline facility vs baseline immediately prior to LAT-B,living monkey eye,not significantly different
same,"facility increase, average over 90 min",living monkey eye,456±128%
same,initial post-drug facility increase over final baseline value,living monkey eye,379±125%
same,potency relative to LAT-A in the live monkey TM,living monkey eye,at least 10 fold
same,[Protein]AC increase vs contralateral control eyes,"living monkey eyes [1]; 1 hr, n=4",80±51%
same,[Protein]AC increase vs contralateral control eyes,"living monkey eyes [1]; 6.5 hr, n=6",11±24%
same,recovery of corneal endothelium,living monkey eyes [2]; 4 μg LAT-B,"by 6 hr, the corneal endothelium of almost all treated eyes had recovered"
same,biomicroscopy findings,"living monkey eyes [2]; LAT-B 0.8 μg topical, 3 days after drug and AC perfusion",no adverse effects
same,biomicroscopy findings,"living monkey eyes [2]; LAT-B 4.0 μg topical, day 3 after perfusion",two drug-treated eyes exhibited a small clot of blood in the AC
same,biomicroscopy findings,"living monkey eyes [2]; LAT-B topical, day 7",all eyes appeared biomicroscopically normal
same,lens appearance,living monkey eyes [2]; after topical drug,always appeared normal
same,corneal epithelium at slit lamp,living monkey eyes [2]; topical LAT-A (21 or 42 μg) or LAT-B (4 μg) in 25% DMSO,mild transient corneal epithelial cloudiness
same,eyes that developed flare (1-2+ on a scale of 0-4+),"living monkey eyes [2]; topical, recovered by 24-48 hr",one LAT-B-treated eye
same,"Cell count Exp, drug eye",corneal endothelium; 3 days,2188 ± 430 cell per square millimeter
same,"Cell count Exp, drug/Vehicle",corneal endothelium; 3 days,0.86 ± 0.11
same,"Cell count Exp, drug−Vehicle",corneal endothelium; 3 days,−281 ± 248 cell per square millimeter
same,"Cell count Exp/BL, drug eye",corneal endothelium; 3 days,0.83 ± 0.14
same,"Cell count Exp/BL, drug/Vehicle",corneal endothelium; 3 days,0.80 ± 0.11
same,"Cell count Exp/BL, drug−Vehicle",corneal endothelium; 3 days,−0.18 ± 0.10
same,"Cell count Exp, drug eye",corneal endothelium; 7 days,2494 ± 166 cell per square millimeter
same,"Cell count Exp, drug/Vehicle",corneal endothelium; 7 days,1.04 ± 0.03
same,"Cell count Exp, drug−Vehicle",corneal endothelium; 7 days,94 ± 68 cell per square millimeter
same,"Cell count Exp/BL, drug eye",corneal endothelium; 7 days,0.94 ± 0.04
same,"Cell count Exp/BL, drug/Vehicle",corneal endothelium; 7 days,0.96 ± 0.02
same,"Cell count Exp/BL, drug−Vehicle",corneal endothelium; 7 days,−0.04 ± 0.02
same,"Cell count Exp, drug eye",corneal endothelium; 14 days,2581 ± 143 cell per square millimeter
same,"Cell count Exp, drug/Vehicle",corneal endothelium; 14 days,1.03 ± 0.05
same,"Cell count Exp, drug−Vehicle",corneal endothelium; 14 days,75 ± 108 cell per square millimeter
same,"Cell count Exp/BL, drug eye",corneal endothelium; 14 days,0.98 ± 0.02
same,"Cell count Exp/BL, drug/Vehicle",corneal endothelium; 14 days,0.95 ± 0.03
same,"Cell count Exp/BL, drug−Vehicle",corneal endothelium; 14 days,−0.05 ± 0.03
same,corneal endothelial cell borders,living monkey eyes [3],indistinct
same,effect on AHF,"living monkey eyes [4]; 4 μg LAT-B topical, first 3 hr","small, insignificant increase in AHF"
same,increase in ka,"living monkey eyes [4]; 4 μg LAT-B topical, first 3 hr",58±20%
same,increase in ka,"living monkey eyes [4]; 4 μg LAT-B topical, overall 6 hr, n=6",39±5%
same,"AHF Rx, LAT-B/Vehicle","living monkey eyes [4]; hour 0.5 to 3.0, n=6",1.33
same,"AHF Rx/BL, LAT-B eye","living monkey eyes [4]; hour 0.5 to 3.0, n=6",1.31
same,"AHF Rx/BL, LAT-B/Vehicle","living monkey eyes [4]; hour 0.5 to 3.0, n=6",1.33
same,"ka Rx, LAT-B eye","living monkey eyes [4]; hour 0.5 to 3.0, n=6",0.00735 min⁻¹
same,"ka Rx, LAT-B/Vehicle","living monkey eyes [4]; hour 0.5 to 3.0, n=6",1.62
same,"ka Rx/BL, LAT-B eye","living monkey eyes [4]; hour 0.5 to 3.0, n=6",1.44
same,"ka Rx/BL, LAT-B/Vehicle","living monkey eyes [4]; hour 0.5 to 3.0, n=6",1.58
same,"AHF Rx, LAT-B/Vehicle","living monkey eyes [4]; hour 0.5 to 6.0, n=6",1.14
same,"AHF Rx/BL, LAT-B eye","living monkey eyes [4]; hour 0.5 to 6.0, n=6",1.04
same,"AHF Rx/BL, LAT-B/Vehicle","living monkey eyes [4]; hour 0.5 to 6.0, n=6",1.16
same,"ka Rx, LAT-B eye","living monkey eyes [4]; hour 0.5 to 6.0, n=6",0.00648 min⁻¹
same,"ka Rx, LAT-B/Vehicle","living monkey eyes [4]; hour 0.5 to 6.0, n=6",1.34
same,"ka Rx/BL, LAT-B eye","living monkey eyes [4]; hour 0.5 to 6.0, n=6",1.33
same,"ka Rx/BL, LAT-B/Vehicle","living monkey eyes [4]; hour 0.5 to 6.0, n=6",1.39
same,"AHF Rx, LAT-B/Vehicle","living monkey eyes [4]; hour 3.5 to 6.0, n=6",0.93
same,"AHF Rx/BL, LAT-B eye","living monkey eyes [4]; hour 3.5 to 6.0, n=6",0.84
same,"AHF Rx/BL, LAT-B/Vehicle","living monkey eyes [4]; hour 3.5 to 6.0, n=6",0.91
same,"ka Rx, LAT-B eye","living monkey eyes [4]; hour 3.5 to 6.0, n=6",0.0063 min⁻¹
same,"ka Rx, LAT-B/Vehicle","living monkey eyes [4]; hour 3.5 to 6.0, n=6",1.21
same,"ka Rx/BL, LAT-B eye","living monkey eyes [4]; hour 3.5 to 6.0, n=6",1.31
same,"ka Rx/BL, LAT-B/Vehicle","living monkey eyes [4]; hour 3.5 to 6.0, n=6",1.25
